Values after ≈ are worked out from the molar mass of the structure shown.
Assays:
[1] = system: Enterococcus faecalis ATCC 29212; experiment: Minimum Inhibitory Concentration (MIC) in LB media; assay type: cell-based; settings: for MIC: Enterococcus faecalis, ATCC29212, read-out: Minimum Inhibitory Concentration E. faecalis ATCC 29212
Source text: (§1) The compounds of Formula (I) are of interest due to their potent antibacterial effects. The ability of the invention compounds disclosed herein to achieve an antibacterial effect may be evaluated with regard to their ability to inhibit the growth of bacterial species like Escherichia coli ATCC 25922, Staphylococcus aureus ATCC 29213, Klebsiella pneumoniae ATCC 13883, Acinetobacter baumannii ATCC 19606, Pseudomonas aeruginosa ATCC 27853, Enterococcus faecalis ATCC 29212 and Enterococcus faecalis ATCC 29212 using an assay based on the following Minimum Inhibitory Concentration (MIC) protocol:
(§2) The medium sterility is checked by incubating at 37° C. for a period of 48 h.
(§3) Bacterial cultures that are stored as glycerol stocks at −80° C. are sub cultured on LB agar plates to obtain isolated colonies. A single colony of each strain is cultured in LB broth. The cultures are incubated at 37 C, 200 rpm till they reach an optical density (OD at 600 nm) of 0.8 to 1. […] Test compounds are dissolved in dimethyl sulfoxide (DMSO) to a stock concentration of 4 mg/ml. A twofold dilution series of this DMSO stock is prepared in a 96 well V bottom microtitre plate from rows A to H. A 3 μL volume of these dilutions are transferred to a 96-well flat bottom microtitre assay plate. Controls to monitor the effects of DMSO and media sterility are included. Each well is inoculated with 150 μL of the above diluted culture. The plates are incubated at 37° C. overnight in a humidified incubator. The following morning, the plates are read using a Spectrophotometer at 600 nm wavelength. […] The antibacterial activity (MIC) determined against representative Gram positive (S. aureus, E. faecalis) and Gram negative (E.coli, -P. aeruginosa and A. baumannii) pathogen were reported Table 1.

[2] = system: Escherichia coli ATCC 25922; experiment: Minimum Inhibitory Concentration (MIC) in LB media; assay type: cell-based; settings: for MIC: Escherichia coli, ATCC25922, read-out: Minimum Inhibitory Concentration E. coli ATCC 25922
Source text: as §1, §2, §3

[3] = system: Klebsiella pneumoniae ATCC 13883; experiment: Minimum Inhibitory Concentration (MIC) in LB media; assay type: cell-based; settings: for MIC: Klebsiella pneumoniae, ATCC13883, read-out: Minimum Inhibitory Concentration K. pneumoniae ATCC 13883
Source text: as §1, §2, §3

[4] = system: Pseudomonas aeruginosa ATCC 27853; experiment: Minimum Inhibitory Concentration (MIC) in LB media; assay type: cell-based; settings: for MIC: Pseudomonas aeruginosa, ATCC27853, read-out: Minimum Inhibitory Concentration P. aeruginosa ATCC 27853
Source text: as §1, §2, §3

[5] = system: Staphylococcus aureus ATCC 29213; experiment: Minimum Inhibitory Concentration (MIC) in LB media; assay type: cell-based; settings: for MIC: Staphylococcus aureus, ATCC29213, read-out: Minimum Inhibitory Concentration S. aureus ATCC 29213
Source text: as §1, §2, §3

[6] = system: Acinetobacter baumannii ATCC 19606; experiment: Minimum Inhibitory Concentration (MIC) in LB media; assay type: cell-based; settings: for MIC: Acinetobacter baumannii, ATCC19606;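 for all read-outs here: twofold compound dilutions from DMSO stocks in LB broth microplates, overnight incubation at 37 °C, growth read by absorbance at 600 nm, with DMSO and sterility controls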
E. coli DNA gyrase = E. coli DNA gyrase (Escherichia coli, UniProt P0AES4+P0AES6); experiment: biochemical; settings: supercoiling assay
E. coli topoisomerase IV = E. coli topoisomerase IV (Escherichia coli, UniProt P0AFI2+P20083); experiment: biochemical; settings: decatenation assay; read-out: E. coli Topo IV IC50
Sequence of E. coli topoisomerase IV (P20083 whole entry): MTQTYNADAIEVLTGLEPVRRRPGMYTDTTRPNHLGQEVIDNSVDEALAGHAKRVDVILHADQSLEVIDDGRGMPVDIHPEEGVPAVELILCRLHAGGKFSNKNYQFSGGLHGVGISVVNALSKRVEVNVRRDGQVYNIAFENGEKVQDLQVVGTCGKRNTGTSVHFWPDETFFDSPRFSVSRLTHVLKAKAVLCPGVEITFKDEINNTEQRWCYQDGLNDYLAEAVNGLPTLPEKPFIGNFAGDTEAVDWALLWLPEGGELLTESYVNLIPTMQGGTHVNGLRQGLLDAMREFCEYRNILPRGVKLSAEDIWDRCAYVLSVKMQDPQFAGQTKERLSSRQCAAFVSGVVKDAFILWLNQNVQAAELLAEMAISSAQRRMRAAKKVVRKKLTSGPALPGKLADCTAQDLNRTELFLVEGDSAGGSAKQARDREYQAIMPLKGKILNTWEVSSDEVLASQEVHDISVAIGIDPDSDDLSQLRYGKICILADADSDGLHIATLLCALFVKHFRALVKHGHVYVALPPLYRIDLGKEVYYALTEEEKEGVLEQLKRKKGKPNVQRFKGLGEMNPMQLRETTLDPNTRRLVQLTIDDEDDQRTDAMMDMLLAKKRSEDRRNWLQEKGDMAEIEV
Sequence of E. coli topoisomerase IV (P0AFI2 whole entry): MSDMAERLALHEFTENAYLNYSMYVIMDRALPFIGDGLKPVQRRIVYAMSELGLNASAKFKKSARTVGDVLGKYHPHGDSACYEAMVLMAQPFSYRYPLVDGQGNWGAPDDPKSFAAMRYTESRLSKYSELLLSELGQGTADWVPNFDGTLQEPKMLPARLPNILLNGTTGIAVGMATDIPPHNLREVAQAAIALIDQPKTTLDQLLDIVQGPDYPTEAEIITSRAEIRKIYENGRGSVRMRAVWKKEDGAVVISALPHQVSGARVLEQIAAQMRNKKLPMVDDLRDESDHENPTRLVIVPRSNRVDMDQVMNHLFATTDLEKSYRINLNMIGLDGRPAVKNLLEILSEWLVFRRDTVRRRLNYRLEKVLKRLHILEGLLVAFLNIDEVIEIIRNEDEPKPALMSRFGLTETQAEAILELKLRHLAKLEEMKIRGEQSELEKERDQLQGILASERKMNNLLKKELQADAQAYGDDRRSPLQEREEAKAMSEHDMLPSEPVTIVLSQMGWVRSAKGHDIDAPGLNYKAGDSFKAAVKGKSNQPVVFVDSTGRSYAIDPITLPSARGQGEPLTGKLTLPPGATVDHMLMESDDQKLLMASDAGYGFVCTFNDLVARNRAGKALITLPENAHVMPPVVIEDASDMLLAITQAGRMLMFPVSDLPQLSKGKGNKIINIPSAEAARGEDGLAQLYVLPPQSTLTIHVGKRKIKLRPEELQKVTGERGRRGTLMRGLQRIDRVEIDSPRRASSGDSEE

Sequence of E. coli DNA gyrase (P0AES4 whole entry, one chain of several): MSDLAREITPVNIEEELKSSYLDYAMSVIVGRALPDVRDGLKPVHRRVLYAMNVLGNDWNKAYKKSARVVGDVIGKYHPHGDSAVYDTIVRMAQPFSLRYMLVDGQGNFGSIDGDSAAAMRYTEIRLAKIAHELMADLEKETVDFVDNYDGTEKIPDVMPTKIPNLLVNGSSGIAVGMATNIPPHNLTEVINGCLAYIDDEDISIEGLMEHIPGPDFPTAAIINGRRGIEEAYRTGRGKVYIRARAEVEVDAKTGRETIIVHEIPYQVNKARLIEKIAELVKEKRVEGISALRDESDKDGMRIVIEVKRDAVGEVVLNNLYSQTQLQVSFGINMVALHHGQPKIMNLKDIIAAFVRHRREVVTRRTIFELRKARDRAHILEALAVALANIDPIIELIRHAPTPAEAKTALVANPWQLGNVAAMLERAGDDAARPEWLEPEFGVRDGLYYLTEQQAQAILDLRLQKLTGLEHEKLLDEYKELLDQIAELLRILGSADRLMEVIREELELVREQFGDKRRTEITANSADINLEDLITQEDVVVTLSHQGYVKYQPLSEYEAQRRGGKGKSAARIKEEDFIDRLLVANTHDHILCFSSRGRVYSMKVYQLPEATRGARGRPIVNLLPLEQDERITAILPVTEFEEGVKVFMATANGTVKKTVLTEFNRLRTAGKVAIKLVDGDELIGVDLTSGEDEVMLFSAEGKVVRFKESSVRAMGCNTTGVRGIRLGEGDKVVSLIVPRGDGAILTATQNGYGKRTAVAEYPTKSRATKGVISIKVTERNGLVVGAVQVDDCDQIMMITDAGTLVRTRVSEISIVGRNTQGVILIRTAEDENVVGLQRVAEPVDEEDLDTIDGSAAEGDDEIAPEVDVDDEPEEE

| Compound | MIC [1] | MIC [2] | MIC [3] | MIC [4] | MIC [5] | MIC [6] | IC50 (E. coli DNA gyrase) | IC50 (E. coli topoisomerase IV) | Minimum Inhibitory Concentration E. faecalis ATCC 29212 [1] | Minimum Inhibitory Concentration E. coli ATCC 25922 [2] | Minimum Inhibitory Concentration K. pneumoniae ATCC 13883 [3] | Minimum Inhibitory Concentration P. aeruginosa ATCC 27853 [4] | Minimum Inhibitory Concentration S. aureus ATCC 29213 [5] | Minimum Inhibitory Concentration A. baumannii ATCC 19606 [6] |
| --- | --- | --- | --- | --- | --- | --- | --- | --- | --- | --- | --- | --- | --- | --- |
| Cn1c(=O)cnc2ccc(F)c(CCNC[C@H]3CN(c4ccc5c(n4)NC(=O)CO5)C(=O)O3)c21 [Example 4, (S)-6-(5-(((2-(6-fluoro-4-methyl-3-oxo-3,4-dihydroquinoxalin-5-yl)ethyl)amino)methyl)-2-oxooxazolidin-3-yl)-2H-pyrido[3,2-b][1,4]oxazin-3(4H)-one] | 0.06 µg/mL (≈ 0.128 µM) | 0.03 µg/mL (≈ 0.064 µM) | 0.03 µg/mL (≈ 0.064 µM) | 0.25 µg/mL (≈ 0.534 µM) | ≤ 0.015 µg/mL | ≤ 0.015 µg/mL | 7 nM | 93 nM |  |  |  |  |  |  |
| Cc1cc(=O)n(C)c2c(CCNC[C@H]3CN(c4cnc5c(n4)NC(=O)CO5)C(=O)O3)c(F)ccc12 [Example 28, (S)-6-(5-(((2-(7-fluoro-1,4-dimethyl-2-oxo-1,2-dihydroquinolin-8-yl)ethyl)amino)methyl)-2-oxooxazolidin-3-yl)-2H-pyrazino[2,3-b][1,4]oxazin-3(4H)-one] | 0.06 µg/mL (≈ 0.124 µM) | 0.06 µg/mL (≈ 0.124 µM) | 0.06 µg/mL (≈ 0.124 µM) | 0.5 µg/mL (≈ 1.04 µM) | ≤ 0.015 µg/mL | 0.125 µg/mL (≈ 0.259 µM) |  |  |  |  |  |  |  |  |
| Cn1c(=O)ccc2ccc(F)c(C[C@@H](O)CNC[C@H]3CN(c4ccc5c(n4)NC(=O)CO5)C(=O)O3)c21 (single isomer, unassigned) [Example 19] | 0.5 µg/mL (≈ 1.01 µM) | 0.25 µg/mL (≈ 0.503 µM) | 0.125 µg/mL (≈ 0.251 µM) | 2 µg/mL (≈ 4.02 µM) | 0.25 µg/mL (≈ 0.503 µM) | 1 µg/mL (≈ 2.01 µM) |  |  |  |  |  |  |  |  |
| CCn1c(=O)ccc2ccc(F)c(CCNCC[C@H]3CN(c4cnc5c(n4)NC(=O)CO5)C(=O)O3)c21 [Example 27, (S)-6-(5-(2-((2-(1-ethyl-7-fluoro-2-oxo-1,2-dihydroquinolin-8-yl)ethyl)amino)ethyl)-2-oxooxazolidin-3-yl)-2H-pyrazino[2,3-b][1,4]oxazin-3(4H)-one] | 0.06 µg/mL (≈ 0.121 µM) | 0.03 µg/mL (≈ 0.0604 µM) | 0.125 µg/mL (≈ 0.252 µM) | 0.5 µg/mL (≈ 1.01 µM) | 0.015 µg/mL (≈ 0.0302 µM) | 0.06 µg/mL (≈ 0.121 µM) |  |  |  |  |  |  |  |  |
| Cn1c(=O)ccc2ncc(F)c(CCNC[C@H]3CN(c4cnc5c(n4)NC(=O)CO5)C(=O)O3)c21 [Example 29, (S)-6-(5-(((2-(3-fluoro-5-methyl-6-oxo-5,6-dihydro-1,5-naphthyridin-4-yl)ethyl)amino)methyl)-2-oxooxazolidin-3-yl)-2H-pyrazino[2,3-b][1,4]oxazin-3(4H)-one] | 0.125 µg/mL (≈ 0.266 µM) | 0.125 µg/mL (≈ 0.266 µM) | 0.125 µg/mL (≈ 0.266 µM) | 0.5 µg/mL (≈ 1.07 µM) | 0.03 µg/mL (≈ 0.0639 µM) | 0.5 µg/mL (≈ 1.07 µM) |  |  |  |  |  |  |  |  |
| Cc1nc2ccc(F)c(CCNC[C@@H]3CN(c4ccc5c(n4)NC(=O)CO5)C(=O)O3)c2n(C)c1=O [Example 7, (R)-6-(5-(((2-(6-fluoro-2,4-dimethyl-3-oxo-3,4-dihydroquinoxalin-5-yl)ethyl)amino)methyl)-2-oxooxazolidin-3-yl)-2H-pyrido[3,2-b][1,4]oxazin-3(4H)-one] | 0.25 µg/mL (≈ 0.518 µM) | 0.125 µg/mL (≈ 0.259 µM) | 0.25 µg/mL (≈ 0.518 µM) | 2 µg/mL (≈ 4.15 µM) | 0.06 µg/mL (≈ 0.124 µM) | 0.06 µg/mL (≈ 0.124 µM) |  |  |  |  |  |  |  |  |
| Cn1c(=O)ccc2ncc(F)c(CCCNCC3CN(c4ccc5c(n4)NC(=O)CO5)C(=O)O3)c21 (stereo not drawn) [Example 1b, Chiral 6-(5-(((3-(3-fluoro-5-methyl-6-oxo-5,6-dihydro-1,5-naphthyridin-4-yl)propyl)amino)methyl)-2-oxooxazolidin-3-yl)-2H-pyrido[3,2-b][1,4]oxazin-3(4H)-one] |  |  |  |  |  |  |  |  | <4 µg/mL | <0.5 µg/mL | <1 µg/mL | <16 µg/mL | <4 µg/mL | <0.5 µg/mL |
| Cn1c(=O)ccc2ncc(F)c(CCCNCC3CN(c4ccc5c(n4)NC(=O)CO5)C(=O)O3)c21 (racemic) [Example 1, 6-(5-(((3-(3-fluoro-5-methyl-6-oxo-5,6-dihydro-1,5-naphthyridin-4-yl)propyl)amino)methyl)-2-oxooxazolidin-3-yl)-2H-pyrido[3,2-b][1,4]oxazin-3(4H)-one] | < 4 µg/mL | < 0.5 µg/mL | < 1 µg/mL | < 16 µg/mL | < 4 µg/mL | < 0.5 µg/mL |  |  |  |  |  |  |  |  |
| CCn1c(=O)ccc2ccc(F)c(CCNC[C@H]3CN(c4cnc5c(n4)NC(=O)CO5)C(=O)O3)c21 [Example 26, (S)-6-(5-(((2-(1-ethyl-7-fluoro-2-oxo-1,2-dihydroquinolin-8-yl)ethyl)amino)methyl)-2-oxooxazolidin-3-yl)-2H-pyrazino[2,3-b][1,4]oxazin-3(4H)-one] | 0.03 µg/mL (≈ 0.0622 µM) | 0.03 µg/mL (≈ 0.0622 µM) | 0.03 µg/mL (≈ 0.0622 µM) | 0.5 µg/mL (≈ 1.04 µM) | ≤ 0.015 µg/mL | 0.03 µg/mL (≈ 0.0622 µM) |  |  |  |  |  |  |  |  |
| Cn1c(=O)cnc2ccc(F)c(CCNC[C@H]3CN(c4cnc5c(n4)NC(=O)CO5)C(=O)O3)c21 [Example 30, (S)-6-(5-(((2-(6-fluoro-4-methyl-3-oxo-3,4-dihydroquinoxalin-5-yl)ethyl)amino)methyl)-2-oxooxazolidin-3-yl)-2H-pyrazino[2,3-b][1,4]oxazin-3(4H)-one] | 0.125 µg/mL (≈ 0.266 µM) | 0.06 µg/mL (≈ 0.128 µM) | 0.06 µg/mL (≈ 0.128 µM) | 0.25 µg/mL (≈ 0.533 µM) | 0.03 µg/mL (≈ 0.0639 µM) | 0.06 µg/mL (≈ 0.128 µM) |  |  |  |  |  |  |  |  |
| Cn1c(=O)cnc2ccc(F)c(CCNC[C@H]3CN(c4ncc5c(n4)NC(=O)CO5)C(=O)O3)c21 [Example 17, (S)-2-(5-(((2-(6-fluoro-4-methyl-3-oxo-3,4-dihydroquinoxalin-5-yl)ethyl)amino)methyl)-2-oxooxazolidin-3-yl)-6H-pyrimido[5,4-b][1,4]oxazin-7(8H)-one] | 0.25 µg/mL (≈ 0.533 µM) | 0.125 µg/mL (≈ 0.266 µM) | 0.25 µg/mL (≈ 0.533 µM) | 2 µg/mL (≈ 4.26 µM) | 0.125 µg/mL (≈ 0.266 µM) | 1 µg/mL (≈ 2.13 µM) |  |  |  |  |  |  |  |  |
| COCCn1c(=O)ccc2ccc(F)c(CCNC[C@H]3CN(c4cnc5c(n4)NC(=O)CO5)C(=O)O3)c21 [Example 21, (S)-6-(5-(((2-(7-fluoro-1-(2-methoxyethyl)-2-oxo-1,2-dihydroquinolin-8-yl)ethyl)amino)methyl)-2-oxooxazolidin-3-yl)-2H-pyrazino[2,3-b][1,4]oxazin-3(4H)-one] | 0.25 µg/mL (≈ 0.488 µM) | 0.06 µg/mL (≈ 0.117 µM) | 0.125 µg/mL (≈ 0.244 µM) | 1 µg/mL (≈ 1.95 µM) | 0.015 µg/mL (≈ 0.0293 µM) | 0.125 µg/mL (≈ 0.244 µM) |  |  |  |  |  |  |  |  |
| CS(=O)(=O)CCn1c(=O)ccc2ccc(F)c(CCNC[C@H]3CN(c4ccc5c(n4)NC(=O)CO5)C(=O)O3)c21 [Example 11, (S)-6-(5-(((2-(7-fluoro-1-(2-(methylsulfonyl)ethyl)-2-oxo-1,2-dihydroquinolin-8-yl)ethyl)amino)methyl)-2-oxooxazolidin-3-yl)-2H-pyrido[3,2-b][1,4]oxazin-3(4H)-one] | 0.5 µg/mL (≈ 0.894 µM) | 0.25 µg/mL (≈ 0.447 µM) | 0.25 µg/mL (≈ 0.447 µM) | 2 µg/mL (≈ 3.57 µM) | 0.03 µg/mL (≈ 0.0536 µM) | 0.5 µg/mL (≈ 0.894 µM) |  |  |  |  |  |  |  |  |
| CN1C(=O)CCc2ccc(F)c(CCNC[C@H]3CN(c4ccc5c(n4)NC(=O)CO5)C(=O)O3)c21 [Example 2, (S)-6-(5-(((2-(7-fluoro-1-methyl-2-oxo-1,2,3,4-tetrahydroquinolin-8-yl)ethyl)amino)methyl)-2-oxooxazolidin-3-yl)-2H-pyrido[3,2-b][1,4]oxazin-3(4H)-one] | 1 µg/mL (≈ 2.13 µM) | 0.125 µg/mL (≈ 0.266 µM) | 0.25 µg/mL (≈ 0.533 µM) | 4 µg/mL (≈ 8.52 µM) | 0.125 µg/mL (≈ 0.266 µM) | 0.125 µg/mL (≈ 0.266 µM) |  |  |  |  |  |  |  |  |
